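Interpolation was linear, between the two tested concentrations surrounding the appropriate level; five concentrations were tested over 48 hours in 96-well plates. GI50 is the concentration that inhibits growth by half.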 Active and inactive are the calls of the source. Cut-off read from the data, not from the text of the source: active = GI50 up to about 1.1 µM and inactive = higher.
Legend:
Test in all cases: DTP human tumour cell line panel, 48 h
HT-29 = system: HT-29
NCI-H23 = system: NCI-H23
SW-620 = system: SW-620
KM12 = system: KM12
OVCAR-5 = system: OVCAR-5
HCT-116 = system: HCT-116
MDA-N = system: MDA-N
SN12C = system: SN12C
SK-OV-3 = system: SK-OV-3
MDA-MB-435 = system: MDA-MB-435
SK-MEL-28 = system: SK-MEL-28
SNB-19 = system: SNB-19
UO-31 = system: UO-31
DU-145 = system: DU-145
RXF 393 = system: RXF 393
T47D = system: T47D
U-251 = system: U-251
786-0 = system: 786-0
HCC 2998 = system: HCC 2998
NCI/ADR-RES = system: NCI/ADR-RES
BT-549 = system: BT-549
MDA-MB-231 = system: MDA-MB-231
UACC-257 = system: UACC-257
EKVX = system: EKVX
SK-MEL-5 = system: SK-MEL-5
LOX IMVI = system: LOX IMVI
CAKI-1 = system: CAKI-1
NCI-H522 = system: NCI-H522
MOLT-4 = system: MOLT-4
K562 = system: K562
SNB-75 = system: SNB-75
Malme-3M = system: Malme-3M
OVCAR-4 = system: OVCAR-4
MCF7 = system: MCF7
CCRF-CEM = system: CCRF-CEM
SF-268 = system: SF-268
HOP-62 = system: HOP-62
NCI-H226 = system: NCI-H226
SF-295 = system: SF-295
A498 = system: A498
SK-MEL-2 = system: SK-MEL-2
SF-539 = system: SF-539
UACC-62 = system: UACC-62
HOP-92 = system: HOP-92
TK-10 = system: TK-10
COLO 205 = system: COLO 205
PC-3 = system: PC-3
HCT-15 = system: HCT-15
RPMI-8226 = system: RPMI-8226
OVCAR-8 = system: OVCAR-8
OVCAR-3 = system: OVCAR-3
HL-60 = system: HL-60
A549 = system: A549
ACHN = system: ACHN
NCI-H460 = system: NCI-H460
M14 = system: M14
IGROV-1 = system: IGROV-1
SR = system: SR
Hs-578T = system: Hs-578T

Q: Which GI50 (HT-29) does the source give for `S=C=NCc1ccccc1` [BENZYL ISOTHIOCYANATE] here?
A: 2.47 µM (inactive)

Q: What about the GI50 (NCI-H23) of the same compound?
A: 3.81 µM (inactive)

Q: And the GI50 (SW-620)?
A: 2.35 µM (inactive)

Q: And the GI50 (KM12)?
A: 0.895 µM (active)

Q: What about the GI50 (OVCAR-5) of the same compound?
A: 10.9 µM (inactive)

Q: What about the GI50 (HCT-116) of the same compound?
A: 0.604 µM (active)

Q: What about the GI50 (MDA-N) of the same compound?
A: 1.18 µM (inactive)

Q: And the GI50 (SN12C)?
A: 3.7 µM (inactive)

Q: What about the GI50 (SK-OV-3) of the same compound?
A: 11 µM (inactive)

Q: What about the GI50 (MDA-MB-435) of the same compound?
A: 2.16 µM (inactive)

Q: And the GI50 (SK-MEL-28)?
A: 3.08 µM (inactive)

Q: What about the GI50 (SNB-19) of the same compound?
A: 4.71 µM (inactive)

Q: What about the GI50 (UO-31) of the same compound?
A: 2.72 µM (inactive)

Q: And the GI50 (DU-145)?
A: 4.13 µM (inactive)

Q: What about the GI50 (RXF 393) of the same compound?
A: 1.62 µM (inactive)

Q: And the GI50 (T47D)?
A: 10.4 µM (inactive)

Q: What about the GI50 (U-251) of the same compound?
A: 3.07 µM (inactive)

Q: What about the GI50 (786-0) of the same compound?
A: 0.422 µM (active)

Q: And the GI50 (HCC 2998)?
A: 8.28 µM (inactive)

Q: And the GI50 (NCI/ADR-RES)?
A: 3.43 µM (inactive)

Q: What about the GI50 (BT-549) of the same compound?
A: 2.32 µM (inactive)

Q: And the GI50 (MDA-MB-231)?
A: 1.8 µM (inactive)

Q: And the GI50 (UACC-257)?
A: 3.15 µM (inactive)

Q: What about the GI50 (EKVX) of the same compound?
A: 14.6 µM (inactive)

Q: What about the GI50 (SK-MEL-5) of the same compound?
A: 2.81 µM (inactive)

Q: What about the GI50 (LOX IMVI) of the same compound?
A: 0.796 µM (active)

Q: And the GI50 (CAKI-1)?
A: 1.85 µM (inactive)

Q: And the GI50 (NCI-H522)?
A: 1.22 µM (inactive)

Q: And the GI50 (MOLT-4)?
A: 1.31 µM (inactive)

Q: And the GI50 (K562)?
A: 0.697 µM (active)

Q: And the GI50 (SNB-75)?
A: 4.27 µM (inactive)

Q: What about the GI50 (Malme-3M) of the same compound?
A: 3.1 µM (inactive)

Q: What about the GI50 (OVCAR-4) of the same compound?
A: 3.8 µM (inactive)

Q: What about the GI50 (MCF7) of the same compound?
A: 3.23 µM (inactive)

Q: And the GI50 (CCRF-CEM)?
A: 0.454 µM (active)

Q: What about the GI50 (SF-268) of the same compound?
A: 3.35 µM (inactive)

Q: And the GI50 (HOP-62)?
A: 3.05 µM (inactive)

Q: What about the GI50 (NCI-H226) of the same compound?
A: 10.1 µM (inactive)

Q: What about the GI50 (SF-295) of the same compound?
A: 4.82 µM (inactive)

Q: What about the GI50 (A498) of the same compound?
A: 4.13 µM (inactive)

Q: What about the GI50 (SK-MEL-2) of the same compound?
A: 6.35 µM (inactive)

Q: What about the GI50 (SF-539) of the same compound?
A: 1.82 µM (inactive)

Q: What about the GI50 (UACC-62) of the same compound?
A: 3.32 µM (inactive)

Q: What about the GI50 (HOP-92) of the same compound?
A: 5.77 µM (inactive)

Q: What about the GI50 (TK-10) of the same compound?
A: 4.37 µM (inactive)

Q: And the GI50 (COLO 205)?
A: 1.51 µM (inactive)

Q: And the GI50 (PC-3)?
A: 4.1 µM (inactive)

Q: What about the GI50 (HCT-15) of the same compound?
A: 3.36 µM

Q: And the GI50 (RPMI-8226)?
A: 0.456 µM (active)

Q: What about the GI50 (OVCAR-8) of the same compound?
A: 2.62 µM (inactive)

Q: What about the GI50 (OVCAR-3) of the same compound?
A: 2.75 µM (inactive)

Q: What about the GI50 (HL-60) of the same compound?
A: 1.86 µM (inactive)

Q: And the GI50 (A549)?
A: 4.49 µM (inactive)

Q: And the GI50 (ACHN)?
A: 3.99 µM (inactive)

Q: And the GI50 (NCI-H460)?
A: 6.27 µM (inactive)

Q: And the GI50 (M14)?
A: 1.67 µM (inactive)

Q: What about the GI50 (IGROV-1) of the same compound?
A: 2.51 µM (inactive)

Q: And the GI50 (SR)?
A: 0.794 µM (active)

Q: What about the GI50 (Hs-578T) of the same compound?
A: 7.08 µM (inactive)

From ChEMBL document CHEMBL1201862, “PubChem BioAssay data set” (2004)
